Experimental data taken from US12661358B2, “Purine derivatives as drugs for the treatment of neonatal hypoxia-ischemia brain injury and related diseases” (COMMISSARIAT A L'ENERGIE ATOMIQUE ET AUX ENERGIES …, priority 2020, dated 2026).

Experiments:
[1] = as demonstrated in WO2018/189122; cited from earlier work
[2] = test system: primary rat cell-based BBB (blood-brain barrier) model; assay: Permeability of 14C-sucrose on primary rat cell-based BBB model after LPS challenge; conditions: LPS 10 ng/mL; compound at 0.1 μM and 1 μM; figure axis in 10^−6 cm·s^−1
Protocol: FIG. 2A: The permeability of radiolabelled sucrose, a permeability marker, was studied on a primary rat cell-based BBB (blood-brain barrier) model after lipopolysaccharide (LPS) challenge.
First graph (left): y-axis: permeability of ^14C-sucrose through the BBB (10^−6 cm·s^−1); x-axis (from left to right): BBB control (negative control); BBB+LPS (10 ng/mL) (positive control); BBB+Compound 13 (0.1 μM); BBB+LPS+Compound 13 (0.1 μM); BBB+Compound 13 (1 μM); BBB+LPS+Compound 13 (1 μM).
Second graph (right): y-axis: permeability of ^14C-sucrose through the BBB (10^−6 cm·s^−1); x-axis (from left to right): BBB control (negative control); BBB+LPS (10 ng/mL) (positive control); BBB+Aftin-5 (0.1 μM); BBB+LPS+Aftin-5 (0.1 μM); BBB+Aftin-5 (1 μM); BBB+LPS+Aftin-5 (1 μM).
The permeability of radiolabelled sucrose (^14C-sucrose), a permeability marker, was studied on a primary rat cell-based BBB (blood-brain barrier) model. Permeability was measured in 10^−6 cm·s^−1. ^14C-sucrose is a small molecular weight marker of 342 Da that tends to reflect paracellular disruption.
To induce increased BBB permeability, lipopolysaccharide (LPS) was injected. LPS induces increased BBB permeability by stimulating formation and release of cytokines and other molecules.
Two different Aftin compounds were tested in this example: […]. […]

[3] = test system: HI (Hypoxia-Ischemia) injury; assay: Rice-Vannucci neonatal HI model, infarct measurement; assay type: in vivo, Wistar rats; conditions: P7 rats, 30 mg/kg IP immediately after hypoxia, 24 h and 48 h; read 72 h after HI (P10); compared to HI+PL; males and females
Description: Subjects were Wistar rats born from time-mated dams obtain from Charles River Laboratory (Wilmington, […], USA).
Post-natal day 7 (P7) (CNS maturation corresponding to 32-34 weeks of gestation in human) rats were assigned to 3 groups: sham, HI+PL or HI+Compound 13.
In the sham group no hypoxia-ischemia was induced in the rats. This group served as a control group.
In the HI+PL group, where PL stands for placebo, hypoxia-ischemia was induced in the rats. The rats were then further administered a saline vehicle, which served as the placebo.
In the HI+Compound 13 group, hypoxia-ischemia was induced in the rats. The rats were then further administered a dose of Compound 13, which is a compound of formula (I) according to the invention.
The Rice-Vanucci method was used to induce the HI injury (Rice J E et al., 1981) in groups HI+PL and HI+Compound 13.
In summary, each animal from all three groups was anesthetized using 3-4% isoflurane and total absence of leg withdrawal reflexes was verified prior to proceeding to surgery. […]
The infarct was calculated as a percentage of the ratio of the damaged volume to the volume of the total contralateral hemisphere with correction for hemispheric edema, according to the following formula: infarct (%)=[1−(volume of total ipsilateral hemisphere−volume of infarct)/volume of total contralateral hemisphere)]×100%.

SMILES | ability to cross the BBB [1] | permeability of 14C-sucrose through the BBB under inflammatory stress [2] | infarct area / infarct volume of the hemisphere ipsilateral to HI injury [3]
CC[C@H](CO)Nc1nc(N(C)c2ccccc2)c2ncn(C(C)C)c2n1 [Aftin-5, (2R)-2-[[9-isopropyl-6-(N-methylanilino)purin-2-yl]amino]butan-1-ol] | able to cross the BBB | statistically restored the permeability properties of the BBB | 
CC[C@H](CO)Nc1nc(N(CC)Cc2ccccc2)c2ncn(C(C)C)c2n1 [Compound 13, (2R)-2-[[6-[benzyl(ethyl)amino]-9-isopropyl-purin-2-yl]amino]butan-1-ol] |  | statistically restored the permeability properties of the BBB | statistically reduced
